Source: patent US20030130336A1, “Method of determining the activity of a central nervous system drug on striatal dopamine transporter populations” (Pfizer Inc., priority 2002, published 2003)
Structures can show the parent of a compound that is named as a salt.

Target: T1, dopamine transporters (DAT) in the striatal nuclei (Homo sapiens, UniProt Q01959)
T1 construct: from tissue; host or cells: striatum (caudate and putamen) of living volunteers, imaged in vivo by SPECT
Experiment: [123I]β-CIT SPECT imaging of striatal DAT binding (V3″ ratio)
Format: in vivo

T1 sequence (Q01959 whole entry): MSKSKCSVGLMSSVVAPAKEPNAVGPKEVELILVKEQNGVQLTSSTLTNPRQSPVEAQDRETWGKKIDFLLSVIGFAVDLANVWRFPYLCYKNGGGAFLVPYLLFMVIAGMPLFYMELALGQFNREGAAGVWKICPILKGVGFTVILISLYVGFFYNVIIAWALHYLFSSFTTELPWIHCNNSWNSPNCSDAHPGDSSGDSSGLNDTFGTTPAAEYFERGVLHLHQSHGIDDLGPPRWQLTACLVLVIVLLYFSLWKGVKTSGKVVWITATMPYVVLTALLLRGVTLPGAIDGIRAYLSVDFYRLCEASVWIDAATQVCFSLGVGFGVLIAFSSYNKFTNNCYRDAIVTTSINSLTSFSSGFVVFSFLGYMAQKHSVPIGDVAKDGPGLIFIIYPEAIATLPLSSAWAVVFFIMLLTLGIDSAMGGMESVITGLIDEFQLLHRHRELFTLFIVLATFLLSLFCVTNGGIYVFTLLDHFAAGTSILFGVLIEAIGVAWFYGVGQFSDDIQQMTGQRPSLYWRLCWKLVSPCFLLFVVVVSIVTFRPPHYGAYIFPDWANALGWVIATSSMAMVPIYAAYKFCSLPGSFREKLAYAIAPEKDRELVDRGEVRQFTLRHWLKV

Compound: CC(NC(C)(C)C)C(=O)c1cccc(Cl)c1 (stereo not drawn) [bupropion hydrochloride]
- St-V3″ (Mean ± SD), Scan 2 (striatum, specific to non-specific [123I]β-CIT binding, Day 8, Group 1 bupropion HCl SR 100 mg po qAM, Group 2 citalopram 20 mg po BID, days 1-8, healthy volunteers): 7.42 ± 1.13
- St-V3″ (Mean ± SD), Scan 3 (striatum, Day 16, Group 1 bupropion HCl SR 100 mg po BID days 9-16, Group 2 citalopram 20 mg po BID plus bupropion HCl SR 100 mg qAM days 9-16): 7.37 ± 1.69
- change in striatal DAT binding (versus baseline Scan 1, RMANOVA, paired t-test with Bonferroni correction): did not lead to any significant changes
